Assay results reported in article PMC13492380, “Dissecting Structural and Functional Determinants of Microtubules Stabilization through Guided Chemical Modulation” (Journal of Medicinal Chemistry, 2026).
Like-named read-outs stand apart in the source and are kept apart here.

Legend:
[1] = test system: A549 cells; assay: MTT cytotoxicity assay, A549; format: cell-based; settings: Homo sapiens, read-out: Cytotoxicity IC50 A549
Description: Antiproliferative assays were performed as described.

[2] = test system: tubulin; assay: Tubulin polymerization time course (absorbance 350 nm); format: biochemical, calf; settings: 25 μM tubulin in PEDTA buffer, 35 μM compound, 37 °C
Description: Purified calf brain tubulin and chemicals were obtained as previously described. Tau-mCherry was expressed and purified as described previously. Human Kif5B-EGFP (amino acids 1-905), containing a C terminal fluorescent-tag followed by a 3C protease cleavage site and a 6 × His-tag was expressed and purified as in with some modifications. Prior to purification, cells were resuspended in 1:1 ratio of lysis buffer (30 mM HEPES pH 7.5, 300 mM NaCl, 0.5 mM ATP, 5% glycerol, 20 mM imidazole, […]) supplemented with 1× Protease inhibitor cocktail and benzonase to the final concentration of 25 units/ml. Cells were homogenized by repeated pipetting. Cells were lysed by spinning for 45 min at 40,000 rpm in 45 Ti fixed-angle rotor (Beckman Coulter) at 4 °C. The supernatant was incubated with pre-equilibrated HisPUR NiNTA agarose resin (Thermo Fisher Scientific) for 1 h in a tightly closed gravity-flow column (Thermo Fisher Scientific) at 4 °C by slowly rotating. Subsequently, the resin was washed once lysis buffer and then with buffer B (30 mM HEPES pH 7.5, 300 mM NaCl, 0.5 mM ATP, 5% glycerol, 30 mM imidazole, […]). The protein was eluted from the resin after an overnight cleavage of the 6 × His-tag with 3C HRV protease in lysis buffer at 4 °C. The eluted protein was further purified via size exclusion chromatography on Superdex 200 10/300 GL column equilibrated in exclusion buffer (30 mM HEPES pH 7.5, 300 mM NaCl, 0.5 mM ATP, 5% glycerol, […]). Peak fractions were analyzed via SDS-PAGE, pooled and the protein was concentrated with Amicon Ultra-15 Centrifugal Filter tubes (Millipore). Purified proteins were aliquoted, snap-frozen in liquid N2, and stored at −80 °C.
Tubulin polymerization assays were performed in PEDTA (10 mM NaPi, 1 mM EDTA, 0.1 mM GTP pH 7.0) or GAB (10 mM NaPi, 3.4 M glycerol, 1 mM EGTA, 0.1 mM GTP pH 6.7) buffers supplemented with 0.9 mM GTP and 4 mM MgCl2.

[3] = test system: kinesin-1 light chain KLC1 (anterograde transport) in SH-SY5Y cells; assay: Cy5-KBP kinesin binding probe tracking, live-cell imaging; format: cell-based, human; settings: for Cy5-KBP Distance, normalized to control / Cy5-KBP Speed, normalized to control: 1 μM PTX or 2.5 μM FTX2, 1a or 1b, mean ± SEM
Source text: Building on our ability to chemically modulate MT structure, we next explored how these changes influence signaling patterns involved in MAPs interactions. Given that MTs are key players in intracellular transport – guiding organelles, vesicles and chromosomes via molecular motors like dyneins and kinesins – we assessed the impact of our compounds on transport dynamics in neuroblastoma SH-SY5Y cells. We combined live-cell imaging with previously developed tracking peptides (Figure A): Cy5-DBP, which encompasses the sequence that specifically recognizes Dynein Light Chain LC8 (retrograde transport), and Cy5-KBP, with a sequence that binds to the tetratricopeptide repeat of the kinesin-1 light chain KLC1 (anterograde transport). […] However, this was for a short incubation period (1 to 2.5 h, including imaging time) to avoid mitotic arrest or compromise cell viability. We then assessed particle behavior by measuring mean track displacement and mean track velocity.
Cy5-KBP and Cy5-DBP tracking peptides were synthesized at CIB-Margarita Salas (CSIC), following a published protocol. Briefly, the peptide chains were assembled via solid phase peptide synthesis (SPPS) using fluorenylmethyloxycarbonyl (Fmoc) as N-terminal protecting group and, subsequently labeled with the organic dye cyanine 5 (Cy5) via a maleimide–thiol reaction between the N-terminal cysteine residues of the peptides and the commercially available Cy5-maleimide. The final peptides were purified via reverse phase HPLC, dissolved in DMSO to a final 2.5 mM concentration and stored in small aliquots at −20 °C. SH-SY5Y cells were seeded into μ-Slide 8-wells ibiTreat plates (ibidi, flat polymer coverslip-bottom, tissue culture treated) at a concentration of 35,000 cells/well and incubated for 48 h at 37 °C and 5% CO2. […] After this time, the culture medium was replaced by the drug working solution containing either Cy5-KBP or Cy5-DBP, and the plate was incubated for an additional 15 min at 37 °C and 5% CO2. Then, the culture medium was replaced with drug working solution without labeled peptide and the cells were imaged using a confocal laser scanning microscope Leica TCS SP8 with a 63x oil immersion objective that included a humidified incubation chamber, a CO2 controller and a heating unit. Cy5 dye was excited at 635 nm and the fluorescence emission was collected at 645–690 nm. Images were recorded every 1.793 s for 3 min as 2-layer-z-stacks. For each condition, two to three different fields were imaged in two separate experiments.
Single-peptide trajectories were tracked with the TrackMate plugin from the Fiji package software (https://imagej.net/TrackMate). Particles with an estimated blob diameter of 1–1.5 μm were detected using the Laplacian of Gaussian (LoG) detector and linked with the Linear motion LAP tracker. Only spots that were at a maximum distance of 2 μm were linked. Trajectories with less than 6 spots were discarded since they were probably artifactual, and track mean displacement and track mean velocity were calculated and normalized to control cells. Data were further analyzed with MATLAB to perform a Mean Square Displacement (MSD) analysis to determine the mode of displacement of the peptides followed over time. Briefly, for each trajectory the MSD function was calculated and its log–log representation fitted with a linear function (log(MSD(τ)) = […] x log(τ) + C). MSD curves with an R^2 coefficient <0.8 were removed. The slope (α) of each MSD curve determines the motion type of each particle and particles were classified into: constrained particles (CM) α < 1, Brownian particles (BM) α = 1, and transported particles (TM) α > 1. Two independent experiments were performed using three biological replicates (N = 6). Statistical analyses of normalized track mean displacement and track mean velocity were performed using an unpaired t test with Welch’s correction in GraphPad Prism 8 software. […]

| Structure (SMILES) | IC50 ([1]; A549, 48 h) [nM] | Polymerization v max [2] | Cy5-KBP Distance, normalized to control [3] | Cy5-KBP Speed, normalized to control [3] | effect on Cy5-KBP particle tracking ([3]; 2.5 μM) | IC50 ([1]; A549, MTT, 48 h, mean ± SEM) [nM] | reduction in kinesin binding probe velocity ([3]; 2.5 μM) [%] |
| --- | --- | --- | --- | --- | --- | --- | --- |
| CC(=O)OC1C(=O)C2(C)C(OC(=O)CCCCC(=O)OC3CCc4ccccc43)CC3OCC3(OC(C)=O)C2C(OC(=O)c2ccccc2)C2(O)CC(OC(=O)C(O)C(NC(=O)c3ccccc3)c3ccccc3)C(C)=C1C2(C)C (stereo not shown) [1a, 7-O-(6″-O-(2‴,3‴-Dihydroinden-1‴-yl)hexanedioyl) Paclitaxel] | 510 ± 40 | 1.19 × 10^–3 min^–1 | 0.92 ± 0.01 ratio to control | 0.95 ± 0.01 ratio to control | did not affect particle tracking | – | – |
| COc1ccc2c(c1)CC(NC(=O)CCCCCCCC(=O)OC1CC3OCC3(OC(C)=O)C3C(OC(=O)c4ccccc4)C4(O)CC(OC(=O)C(O)C(NC(=O)c5ccccc5)c5ccccc5)C(C)=C(C(OC(C)=O)C(=O)C13C)C4(C)C)CC2 [1b, 7-O-((S)-9″-(7‴-Methoxy-1‴,2‴,3‴,4‴-tetrahydronaphthalen-2‴-yl)amino) −9″-oxononanoyl) Paclitaxel] | – | 1.44 × 10^–4 min^–1 | 0.85 ± 0.01 ratio to control | 0.87 ± 0.01 ratio to control | – | 220 ± 20 | ~16 |
| CC(=O)O[C@H]1C(=O)[C@]2(C)[C@@H](OC(=O)[C@H](C)NC(=O)c3ccc(-c4c5cc(F)c(=O)cc-5oc5cc(O)c(F)cc45)c(C(=O)O)c3)C[C@H]3OC[C@@]3(OC(C)=O)[C@H]2[C@H](OC(=O)c2ccccc2)[C@]2(O)C[C@H](OC(=O)[C@H](O)[C@@H](NC(=O)c3ccccc3)c3ccccc3)C(C)=C1C2(C)C [FTX2, Flutax2] | – | 1.42 × 10^–3 min^–1 | 0.910 ± 0.003 ratio to control | 0.85 ± 0.01 ratio to control | – | – | ~14 |
| CC(=O)O[C@H]1C(=O)[C@@]2(C)[C@H]([C@H](OC(=O)c3ccccc3)[C@]3(O)C[C@H](OC(=O)[C@H](O)[C@@H](NC(=O)c4ccccc4)c4ccccc4)C(C)=C1C3(C)C)[C@]1(OC(C)=O)CO[C@@H]1C[C@@H]2O [PTX, Paclitaxel] | – | 1.25 × 10^–2 min^–1 | – | – | – | 3.1 ± 0.7 | – |
